Assay results as given in patent US6737383B1, “Herbicidal oxadiazolidines” (priority 1999, dated 2004).

Key:
common ragweed = assay: Test C postemergence common ragweed; type: in vivo, Ambrosia elatior; conditions: 0 to 100 scale, 0 no effect, 100 complete control
In short: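 Visual injury scored 0-100 (100 = complete control) versus untreated plants roughly 14 to 21 days after treatment. Plants were grown to suitable size in 60:40 sandy loam and potting mix, then treated postemergence with surfactant-containing solvent formulations.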

Alexandergrass = assay: Test D Alexandergrass; type: in vivo, Brachiaria plantaginea; conditions: Preemergence, 0 to 100 scale
In short: (§1)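 Values are visual plant-response ratings (0 no injury, 100 complete control) recorded 14 to 21 days after herbicide treatment, using a non-phytotoxic solvent mixture containing surfactant. Preemergence applications went to the surface of pots holding freshly sown seed in sandy loam.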

bermuda-grass = assay: Test D bermudagrass; type: in vivo, Cynodon dactylon; conditions: Preemergence, 0 to 100 scale
In short: as §1

common pursiane = assay: Test D common purslane; type: in vivo, Portulaca oleracea; conditions: Preemergence, 0 to 100 scale
In short: as §1

common groundsel = assay: Test D common groundsel; type: in vivo, Senecio vulgaris; conditions: Preemergence, 0 to 100 scale
In short: as §1

dallisgrass = assay: Test D dallisgrass; type: in vivo, Paspalum dilatatum; conditions: Preemergence, 0 to 100 scale
In short: as §1

goosegrass = assay: Test D goosegrass; type: in vivo, Eleusine indica; conditions: Preemergence, 0 to 100 scale
In short: as §1

guineagrass = assay: Test D guineagrass; type: in vivo, Panicum maximum; conditions: Preemergence, 0 to 100 scale
In short: as §1

itchgrass = assay: Test D itchgrass; type: in vivo, Rottboellia exaltata; conditions: Preemergence, 0 to 100 scale
In short: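 Scoring used a 0–100 visual injury scale, with 0 meaning no effect and 100 complete control, assessed 14–21 days after application alongside untreated pots. Preemergence treatments went onto sandy loam surfaces of separately potted seeds within a day of sowing.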

Johnson grass = assay: Test D Johnson grass; type: in vivo, Sorghum halepense; conditions: Preemergence, 0 to 100 scale
In short: as §1

pitted morningglory = assay: Test D pitted morningglory; type: in vivo, Ipomoea lacunosa; conditions: Preemergence, 0 to 100 scale
In short: as §1

purple nutsedge = assay: Test D purple nutsedge; type: in vivo, Cyperus rotundus; conditions: Preemergence, 0 to 100 scale
In short: as §1

sandbur = assay: Test D sandbur; type: in vivo, Cenchrus echinatus; conditions: Preemergence, 0 to 100 scale
In short: as §1

Spanishneedles = assay: Test D Spanishneedles; type: in vivo, Bidens bipinnata; conditions: Preemergence, 0 to 100 scale
In short: as §1

surinam grass = assay: Test D surinam grass; type: in vivo, Brachiaria decumbens; conditions: Preemergence, 0 to 100 scale
In short: as §1

tall mallow = assay: Test D tall mallow; type: in vivo, Malva sylvestris; conditions: Preemergence, 0 to 100 scale
In short: as §1

Green foxtail = assay: Test D green foxtail; type: in vivo; conditions: Preemergence, 0 to 100 scale
In short: as §1

[1] = Rate 16 g/ha, 0 no injury, 100 complete control
[2] = Rate 32 g/ha, 0 no injury, 100 complete control
[3] = Rate 64 g/ha, 0 no injury, 100 complete control
[4] = Rate 125 g/ha, 0 no injury, 100 complete control

`C=CCn1c(=O)on(C(=O)N(c2ccc(F)cc2)C(C)C)c1=O` [Compound 146] was tested, and the “Plant response rating Common ragweed” value (common ragweed; Rate 140 g/ha) was 10, the “Plant response rating Common ragweed” value (common ragweed; Rate 560 g/ha) was 30 and the “Plant response rating Common ragweed” value (common ragweed; Rate 1120 g/ha) was 30. For the same compound, the “Plant response rating, Alexandergrass” value (Alexandergrass; [1]) was 65, the “Plant response rating, Alexandergrass” value (Alexandergrass; [2]) was 85 and the “Plant response rating, Alexandergrass” value (Alexandergrass; [3]) was 95. For the same compound, the “Plant response rating, Alexandergrass” value (Alexandergrass; [4]) was 98, the “Plant response rating, Alexandergrass” value (Alexandergrass; Rate 250 g/ha) was 100 and the “Plant response rating, Alexandergrass” value (Alexandergrass; Rate 500 g/ha) was 100. For the same compound, the “Plant response rating, Bermudagrass” value (bermuda-grass; [1]) was 65, the “Plant response rating, Bermudagrass” value (bermuda-grass; [2]) was 100 and the “Plant response rating, Bermudagrass” value (bermuda-grass; [3]) was 95. The “Plant response rating, Bermudagrass” value (bermuda-grass; [4]) was 90, the “Plant response rating, Bermudagrass” value (bermuda-grass; Rate 250 g/ha) was 90 and the “Plant response rating, Bermudagrass” value (bermuda-grass; Rate 500 g/ha) was 100. The “Plant response rating, C. purslane” value (common pursiane; [1]) was 0, the “Plant response rating, C. purslane” value (common pursiane; [2]) was 0 and the “Plant response rating, C. purslane” value (common pursiane; [3]) was 0. The “Plant response rating, C. purslane” value (common pursiane; [4]) was 0, the “Plant response rating, C. purslane” value (common pursiane; Rate 250 g/ha) was 0 and the “Plant response rating, C. purslane” value (common pursiane; Rate 500 g/ha) was 0. For the same compound, the “Plant response rating, Com. groundsel” value (common groundsel; [1]) was 65, the “Plant response rating, Com. groundsel” value (common groundsel; [2]) was 0 and the “Plant response rating, Com. groundsel” value (common groundsel; [3]) was 0. The “Plant response rating, Com. groundsel” value (common groundsel; [4]) was 75, the “Plant response rating, Com. groundsel” value (common groundsel; Rate 250 g/ha) was 85 and the “Plant response rating, Com. groundsel” value (common groundsel; Rate 500 g/ha) was 100. The “Plant response rating, Dallisgrass” value (dallisgrass; [1]) was 80, the “Plant response rating, Dallisgrass” value (dallisgrass; [2]) was 90 and the “Plant response rating, Dallisgrass” value (dallisgrass; [3]) was 98. The “Plant response rating, Dallisgrass” value (dallisgrass; [4]) was 100, the “Plant response rating, Dallisgrass” value (dallisgrass; Rate 250 g/ha) was 100 and the “Plant response rating, Dallisgrass” value (dallisgrass; Rate 500 g/ha) was 100. For the same compound, the “Plant response rating, Goosegrass” value (goosegrass; [1]) was 90, the “Plant response rating, Goosegrass” value (goosegrass; [2]) was 98 and the “Plant response rating, Goosegrass” value (goosegrass; [3]) was 100. For the same compound, the “Plant response rating, Goosegrass” value (goosegrass; [4]) was 100, the “Plant response rating, Goosegrass” value (goosegrass; Rate 250 g/ha) was 100 and the “Plant response rating, Goosegrass” value (goosegrass; Rate 500 g/ha) was 100. The “Plant response rating, Guineagrass” value (guineagrass; [1]) was 90, the “Plant response rating, Guineagrass” value (guineagrass; [2]) was 95 and the “Plant response rating, Guineagrass” value (guineagrass; [3]) was 100. The “Plant response rating, Guineagrass” value (guineagrass; [4]) was 100, the “Plant response rating, Guineagrass” value (guineagrass; Rate 250 g/ha) was 100 and the “Plant response rating, Guineagrass” value (guineagrass; Rate 500 g/ha) was 100. The “Plant response rating, Itchgrass” value (itchgrass; [1]) was 85, the “Plant response rating, Itchgrass” value (itchgrass; [2]) was 90 and the “Plant response rating, Itchgrass” value (itchgrass; [3]) was 90. For the same compound, the “Plant response rating, Itchgrass” value (itchgrass; [4]) was 90, the “Plant response rating, Itchgrass” value (itchgrass; Rate 250 g/ha) was 100 and the “Plant response rating, Itchgrass” value (itchgrass; Rate 500 g/ha) was 100. For the same compound, the “Plant response rating Johnsongrass” value (Johnson grass; [1]) was 60, the “Plant response rating Johnsongrass” value (Johnson grass; [2]) was 60 and the “Plant response rating Johnsongrass” value (Johnson grass; [3]) was 60. For the same compound, the “Plant response rating Johnsongrass” value (Johnson grass; [4]) was 80, the “Plant response rating Johnsongrass” value (Johnson grass; Rate 250 g/ha) was 90 and the “Plant response rating Johnsongrass” value (Johnson grass; Rate 500 g/ha) was 95. The “Plant response rating, P. morninglory” value (pitted morningglory; [1]) was 0, the “Plant response rating, P. morninglory” value (pitted morningglory; [2]) was 0 and the “Plant response rating, P. morninglory” value (pitted morningglory; [3]) was 0. For the same compound, the “Plant response rating, P. morninglory” value (pitted morningglory; [4]) was 0, the “Plant response rating, P. morninglory” value (pitted morningglory; Rate 250 g/ha) was 0 and the “Plant response rating, P. morninglory” value (pitted morningglory; Rate 500 g/ha) was 20. The “Plant response rating, Purple nutsedge” value (purple nutsedge; [1]) was 40, the “Plant response rating, Purple nutsedge” value (purple nutsedge; [2]) was 40 and the “Purple nutsedge plant response rating” value (purple nutsedge; [3]) was 65. The “Purple nutsedge plant response rating” value (purple nutsedge; [4]) was 70, the “Plant response rating, Purple nutsedge” value (purple nutsedge; Rate 250 g/ha) was 75 and the “Plant response rating, Purple nutsedge” value (purple nutsedge; Rate 500 g/ha) was 100. The “Plant response rating, Sandbur” value (sandbur; [1]) was 0, the “Plant response rating, Sandbur” value (sandbur; [2]) was 85 and the “Sandbur plant response rating” value (sandbur; [3]) was 100. The “Sandbur plant response rating” value (sandbur; [4]) was 100, the “Plant response rating, Sandbur” value (sandbur; Rate 250 g/ha) was 100 and the “Plant response rating, Sandbur” value (sandbur; Rate 500 g/ha) was 100. The “Plant response rating, Spanishneedles” value (Spanishneedles; [1]) was 0, the “Plant response rating, Spanishneedles” value (Spanishneedles; [2]) was 75 and the “Spanishneedles plant response rating” value (Spanishneedles; [3]) was 85. For the same compound, the “Spanishneedles plant response rating” value (Spanishneedles; [4]) was 90, the “Plant response rating, Spanishneedles” value (Spanishneedles; Rate 250 g/ha) was 100 and the “Plant response rating, Spanishneedles” value (Spanishneedles; Rate 500 g/ha) was 100. The “Plant response rating Surinam grass” value (surinam grass; [1]) was 40, the “Plant response rating Surinam grass” value (surinam grass; [2]) was 60 and the “Surinam grass plant response rating” value (surinam grass; [3]) was 60. For the same compound, the “Surinam grass plant response rating” value (surinam grass; [4]) was 100, the “Plant response rating Surinam grass” value (surinam grass; Rate 250 g/ha) was 100 and the “Plant response rating Surinam grass” value (surinam grass; Rate 500 g/ha) was 100. For the same compound, the “Plant response rating, Tall Mallow” value (tall mallow; [1]) was 40, the “Plant response rating, Tall Mallow” value (tall mallow; [2]) was 40 and the “Tall Mallow plant response rating” value (tall mallow; [3]) was 50. For the same compound, the “Tall Mallow plant response rating” value (tall mallow; [4]) was 80, the “Plant response rating, Tall Mallow” value (tall mallow; Rate 250 g/ha) was 90 and the “Plant response rating, Tall Mallow” value (tall mallow; Rate 500 g/ha) was 100. For the same compound, the “Green foxtail plant response rating” value (Green foxtail; [3]) was 100, the “Plant response rating, Green foxtail” value (Green foxtail; [3]) was 100 and the “Green foxtail plant response rating” value (Green foxtail; [4]) was 100. The “Plant response rating, Green foxtail” value (Green foxtail; [4]) was 100, the “Plant response rating, Green foxtail” value (Green foxtail; Rate 250 g/ha) was 100 and the “Plant response rating, Green foxtail” value (Green foxtail; Rate 500 g/ha) was 100.
